The record followed here is PubChem BioAssay (NCI).

Some test systems named below: ACHN renal; UACC-62 melanoma; MALME-3M melanoma; OVCAR-3 ovarian; SF-295 CNS; UO-31 renal; MDA-MB-435; HOP-62 NSCLC; HCC-2998 colon; COLO 205 colon.
Assay in all cases: NCI-60 cell line screen, 48 h

Each structure is given as a SMILES string.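 A five-concentration, 48-hour dose response in 96-well plates underlies each endpoint, interpolated linearly between surrounding concentrations. GI50: concentration for 50% inhibition of growth. TGI denotes the concentration required for complete inhibition of growth.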

For `CC(C)OC(=O)c1cc(NC(=S)OC(C)C)ccc1Cl`, the TGI with ACHN renal was more than 59.7 µM; in the test on UACC-62 melanoma, 31.2 µM; with MALME-3M melanoma it was more than 56.9 µM; with OVCAR-3 ovarian, 48.3 µM; in the test on SF-295 CNS it was 46.9 µM; in the test on UO-31 renal it was 54.3 µM. The TGI with MDA-MB-435 was 31.4 µM; in the test with HOP-62 NSCLC it was more than 100 µM; with HCC-2998 colon, more than 57.5 µM; with COLO 205 colon it was 22.2 µM.
`COc1ccc2c(c1)CCC1C2CCC2(C)C(NC(=O)CCCCC3CCSS3)CCC12` (stereo not drawn): the GI50 with ACHN renal is 27.6 µM; in the test on UACC-62 melanoma, 15 µM; with MALME-3M melanoma, 92.2 µM; with OVCAR-3 ovarian, 12.6 µM; in the test on SF-295 CNS, more than 100 µM; in the test with UO-31 renal it was 6.7 µM. Further, the GI50 in the test on MDA-MB-435 was 9.3 µM; with HOP-62 NSCLC, more than 100 µM; with HCC-2998 colon, 30.7 µM; with COLO 205 colon, 5.49 µM. Also, the TGI in the test on ACHN renal, in the test with UACC-62 melanoma, in the test with MALME-3M melanoma, with OVCAR-3 ovarian, in the test with SF-295 CNS and in the test with UO-31 renal was more than 100 µM in each case. Moreover, the TGI in the test with MDA-MB-435, in the test on HOP-62 NSCLC, with HCC-2998 colon and with COLO 205 colon was more than 100 µM throughout.
On to `C#CCN(CCCOc1ccc(Cl)cc1Cl)CCCSC(=O)CCCCCN1/C(=C\C=C2/CCCC(/C=C/C3=[N+](CCCCCC(=O)[O-])c4ccccc4C3(C)C)=C2Cl)C(C)(C)c2ccccc21`, for which the GI50 was 2.65 µM in the test with ACHN renal; 1.15 µM in the test on UACC-62 melanoma; 1.21 µM in the test on MALME-3M melanoma; 1.45 µM in the test on OVCAR-3 ovarian; 1.91 µM with SF-295 CNS; 10.6 µM in the test with UO-31 renal. The GI50 in the test with MDA-MB-435 is 1.46 µM; with HOP-62 NSCLC, 2.1 µM; in the test on HCC-2998 colon, 1.78 µM; with COLO 205 colon, 1.41 µM. In addition, the TGI came out at 7.5 µM in the test with ACHN renal; 3.14 µM in the test on UACC-62 melanoma; 2.85 µM in the test with MALME-3M melanoma; 3.31 µM in the test on OVCAR-3 ovarian; 4.06 µM in the test on SF-295 CNS; 26.2 µM in the test on UO-31 renal. Besides, the TGI in the test with MDA-MB-435 stood at 3.15 µM; with HOP-62 NSCLC it was 5.72 µM; with HCC-2998 colon, 3.51 µM; with COLO 205 colon, 3.39 µM.
As for `CN(Cc1cnc2nc(N)nc(N)c2n1)c1c(Cl)cc(C(=O)NC(CCC(=O)O)C(=O)O)cc1Br` (stereo not drawn), the GI50 in the test with ACHN renal was less than 0.01 µM; in the test with UACC-62 melanoma, less than 0.0118 µM; in the test with MALME-3M melanoma, 0.0322 µM; in the test with OVCAR-3 ovarian, less than 0.01 µM; in the test with SF-295 CNS, less than 0.01 µM; in the test with UO-31 renal, less than 0.01 µM. The GI50 was less than 0.01 µM in the test on MDA-MB-435, less than 0.0221 µM in the test with HOP-62 NSCLC, less than 0.01 µM in the test with HCC-2998 colon and 0.0535 µM in the test with COLO 205 colon. Also, the TGI in the test with ACHN renal, in the test on UACC-62 melanoma, in the test on MALME-3M melanoma, in the test with OVCAR-3 ovarian, in the test on MDA-MB-435 and with HOP-62 NSCLC was more than 100 µM in each case. Moreover, the TGI in the test with HCC-2998 colon was 0.153 µM; in the test with COLO 205 colon it was more than 100 µM.
On to `Cc1nc2sc(C(=O)Nc3cccc(Cl)c3)c(N)c2cc1C(O)c1ccccc1` (stereo not drawn), for which the GI50 in the test on ACHN renal is 0.884 µM; in the test with UACC-62 melanoma, 0.757 µM; with MALME-3M melanoma it was 0.722 µM; in the test with OVCAR-3 ovarian it was 0.587 µM; with SF-295 CNS, 1.21 µM; with UO-31 renal, 2.37 µM. For the same compound, the GI50 was 0.203 µM in the test on MDA-MB-435, 1.45 µM in the test on HOP-62 NSCLC, 1.98 µM in the test on HCC-2998 colon and 3.31 µM in the test with COLO 205 colon. Also, the TGI was determined as 13.4 µM in the test with ACHN renal; 16 µM in the test with UACC-62 melanoma; 20.4 µM in the test with MALME-3M melanoma; 21.6 µM in the test on OVCAR-3 ovarian; 13.5 µM with SF-295 CNS; 15.6 µM with UO-31 renal. The TGI with MDA-MB-435 is 0.465 µM; in the test on HOP-62 NSCLC, 25.5 µM; in the test with HCC-2998 colon, 10.5 µM; with COLO 205 colon it was more than 100 µM.
For the compound `CN1CCC(C(=O)Nc2n[nH]c3nnc(-c4ccccc4)cc23)CC1`, the GI50 in the test with ACHN renal was more than 25 µM; in the test on UACC-62 melanoma, more than 25 µM; in the test with MALME-3M melanoma it was more than 25 µM; in the test with OVCAR-3 ovarian, 10.1 µM; in the test on SF-295 CNS it was 17.5 µM; with UO-31 renal, more than 25 µM. Moreover, the GI50 in the test on MDA-MB-435, with HOP-62 NSCLC, in the test with HCC-2998 colon and in the test on COLO 205 colon was more than 25 µM each time. The TGI in the test with ACHN renal, in the test with UACC-62 melanoma, with MALME-3M melanoma, with OVCAR-3 ovarian, with SF-295 CNS and in the test with UO-31 renal was more than 25 µM throughout. In addition, the TGI in the test with MDA-MB-435, in the test on HOP-62 NSCLC, in the test with HCC-2998 colon and with COLO 205 colon was more than 25 µM each time.
Turning to `COc1cc2c(cc1OC)C(Sc1ccc(Cl)cc1)c1c(nc(N)c(C#N)c1N)O2` (stereo not drawn), the GI50 is 1.59 µM in the test on ACHN renal; 1.27 µM in the test on UACC-62 melanoma; 1.49 µM in the test with MALME-3M melanoma; 1.27 µM in the test on OVCAR-3 ovarian; 1.83 µM in the test on SF-295 CNS; 1.21 µM in the test on UO-31 renal. Besides, the GI50 with MDA-MB-435 was 1.42 µM; with HOP-62 NSCLC it was 1.53 µM; in the test on HCC-2998 colon, 1.72 µM; in the test on COLO 205 colon, 1.43 µM. The TGI with ACHN renal came to 2.95 µM; with UACC-62 melanoma, 2.66 µM; in the test with MALME-3M melanoma it was 3.1 µM; with OVCAR-3 ovarian it was 2.56 µM; in the test on SF-295 CNS, 3.31 µM; with UO-31 renal, 2.46 µM. For the same compound, the TGI was determined as 2.85 µM in the test with MDA-MB-435, 2.88 µM with HOP-62 NSCLC, 3.25 µM in the test on HCC-2998 colon and 2.95 µM with COLO 205 colon.
In the case of `CC1(C)N=C(N)N=C(N)N1c1ccc(CCCCCCc2ccc(S(=O)(=O)F)cc2)cc1`, the TGI was 14.4 µM in the test on ACHN renal; 0.604 µM in the test with UACC-62 melanoma; 3.79 µM in the test on MALME-3M melanoma; 32.4 µM in the test on OVCAR-3 ovarian; 22 µM in the test on SF-295 CNS; 29.5 µM in the test with UO-31 renal. The TGI in the test on MDA-MB-435 worked out at 21.2 µM; with HOP-62 NSCLC it was 15.8 µM; in the test on HCC-2998 colon, 16 µM; with COLO 205 colon, 12.8 µM.
Regarding `O=C([CH-]C(=O)c1ccccc1)c1ccccc1.[CH2-]C.[CH2-]C.[Tl+3]`, the GI50 in the test with ACHN renal is 24.5 µM; in the test on UACC-62 melanoma it was 20.8 µM; with MALME-3M melanoma, 21.3 µM; in the test on OVCAR-3 ovarian, 28 µM; in the test on SF-295 CNS, 15.6 µM; in the test with UO-31 renal, 22.3 µM. Also, the GI50 with MDA-MB-435 was 24.8 µM; in the test on HOP-62 NSCLC, 22.2 µM; in the test with HCC-2998 colon it was 28.7 µM; in the test on COLO 205 colon it was 26.6 µM. Besides, the TGI in the test on ACHN renal was 98.7 µM; in the test with UACC-62 melanoma, 87.6 µM; with MALME-3M melanoma it was more than 76.7 µM; in the test with OVCAR-3 ovarian it was more than 100 µM; with SF-295 CNS it was more than 100 µM; in the test with UO-31 renal, more than 77.2 µM. Further, the TGI is more than 100 µM in the test with MDA-MB-435, more than 90.2 µM in the test on HOP-62 NSCLC, more than 100 µM in the test with HCC-2998 colon and more than 100 µM in the test with COLO 205 colon.
For `NCC[PH+](c1ccccc1)c1ccccc1.NCC[PH+](c1ccccc1)c1ccccc1.[Cl-].[Pt+4]`, the GI50 with ACHN renal was more than 100 µM; with UACC-62 melanoma, more than 86.5 µM; in the test with MALME-3M melanoma, more than 100 µM; with OVCAR-3 ovarian, more than 100 µM; in the test on SF-295 CNS it was more than 100 µM; with UO-31 renal it was more than 100 µM. Besides, the GI50 in the test on MDA-MB-435, in the test with HOP-62 NSCLC, with HCC-2998 colon and in the test on COLO 205 colon was more than 100 µM throughout. Moreover, the TGI in the test with ACHN renal, with UACC-62 melanoma, with MALME-3M melanoma, in the test on OVCAR-3 ovarian, in the test on SF-295 CNS and in the test on UO-31 renal was more than 100 µM throughout. In addition, the TGI in the test on MDA-MB-435, in the test with HOP-62 NSCLC, in the test on HCC-2998 colon and in the test on COLO 205 colon was more than 100 µM throughout.
